system: CEM WT, CEM AB9228, MOLT-4, Jurkat, NALL-1, WI-L2, K562, and HL-60 cells; experiment: Cytotoxicity to various proliferating cell lines (average); assay type: cell-based, human; conditions: Homo sapiens, average TC50 over various proliferating cell lines; read-out: TC50 (the source's name)
Procedure: (§1) (B) Similarly, compounds of the invention were tested for their ability to kill CEM WT, CEM AB9228, MOLT-4, Jurkat, NALL-1, WI-L2, K562, and HL-60 cells.

| Compound | CC50 |
| --- | --- |
| O=C1C(=Cc2cc(Cl)cc(Cl)c2)Cc2cc(O)c(O)cc21 [5,6-dihydroxy-2-(3',5'-dichlorophenylmethylene)-1-indanone] | 30 µM |
| COc1cc2c(cc1OC)C(=O)C(=Cc1cc(C)ccc1C)C2 [5,6-dimethoxy-2-(2',5'-dimethylphenylmethylene)-1-indanone] | 162 µM |
| COc1cc2c(cc1OC)C(=O)C(=Cc1c(Cl)cc(-c3ccncc3)cc1Cl)C2 [5,6-dimethoxy-2-(2',6'-dichloro-4'-(pyridin-4-yl)phenylmethylene)-1-indanone] | 40 µM |
| COc1cc2c(cc1OC)C(=O)C(=Cc1c(O)cc(I)cc1I)C2 [5,6-dimethoxy-2-(2'-hydroxy-4',6'-diiodophenylmethylene)-1-indanone] | 18 µM |
| COc1cc2c(cc1OC)C(=O)C(=Cc1cc([N+](=O)[O-])ccc1O)C2 [5,6-dimethoxy-2-(2'-hydroxy-5'-nitrophenylmethylene)-1-indanone] | 15 µM |
| COc1cc2c(cc1OC)C(=O)C(=Cc1cc(F)cc(F)c1)C2 [5,6-dimethoxy-2-(3',5'-difluorophenylmethylene)-1-indanone] | 19 µM |
| COc1cc2c(cc1OC)C(=O)C(=CC1(O)CC(OC)CC(OC)C1)C2 (stereo not drawn) [5,6-dimethoxy-2-(3',5'-dimethoxy-1'-hydroxycyclohexylmethylene)-1-indanone] | 2 µM |
| COc1cc2c(cc1OC)C(=O)C(=Cc1cc(OC)c(O)c(OC)c1)C2 [5,6-dimethoxy-2-(3',5'-dimethoxy-4'-hydroxyphenylmethylene)-1-indanone] | > 50 µM |
| COc1cc2c(cc1OC)C(=O)C(=Cc1cc(C)c(OC(=O)CCC(=O)O)c(C)c1)C2 [5,6-dimethoxy-2-(3',5'-dimethyl-4'-O-succinylphenylmethylene)-1-indanone] | 1 µM |
| COc1cc2c(cc1OC)C(=O)C(=Cc1cc(OC(F)(F)F)cc(OC(F)(F)F)c1)C2 [5,6-dimethoxy-2-(3',5'-ditrifluoromethoxyphenylmethylene)-1-indanone] | > 100 µM |
| COc1cc2c(cc1OC)C(=O)C(=Cc1cccc(Cl)c1)C2 [5,6-dimethoxy-2-(3'-chlorophenylmethylene)-1-indanone] | > 50 µM |
| COc1cc2c(c(N)c1OC)C(=O)C(=Cc1cc(C)c(O)c(C)c1)C2 [5,6-dimethoxy-7-amino-2-(3',5'-dimethyl-4'-hydroxyphenylmethylene)-1-indanone] | 0.005 µM |
| COc1cc2c(c([N+](=O)[O-])c1OC)C(=O)/C(=C/c1cc(C)c(O)c(C)c1)C2 [5,6-dimethoxy-7-nitro-2-(3',5'-dimethyl-4'-hydroxyphenylmethylene)-1-indanone] | > 50 µM |
| COc1cc(C=C2Cc3cc4c(cc3C2=O)OCO4)cc(OC)c1 [5,6-methylenedioxy-2-(3',5'-dimethoxyphenylmethylene)-1-indanone] | > 50 µM |
| O=C1C(=Cc2cccc(O)c2O)CCc2cc(O)c(O)cc21 [6,7-dihydroxy-2-(2',3'-dihydroxyphenylmethylene)-1-tetralone] | > 50 µM |
| O=C1C(=Cc2cc(O)c(O)c(O)c2)CCc2cc(O)c(O)cc21 [6,7-dihydroxy-2-(3',4',5'-trihydroxyphenylmethylene)-1-tetralone] | 43 µM |
| COc1cc(O)c(C=C2CCc3cc(OC)c(OC)cc3C2=O)c(OC)c1 [6,7-dimethoxy-2-(2',4'-dimethoxy-6'-hydroxyphenylmethylene)-1-tetralone] | 10 µM |
| COc1ccc(OC)c(C=C2CCc3cc(OC)c(OC)cc3C2=O)c1 [6,7-dimethoxy-2-(2',5'-dimethoxyphenylmethylene)-1-tetralone] | 11 µM |
| COc1cc2c(cc1OC)C(=O)C(=Cc1cc(C)ccc1C)CC2 [6,7-dimethoxy-2-(2',5'-dimethylphenylmethylene)-1-tetralone] | 5 µM |
| COc1cc2c(cc1OC)C(=O)C(=Cc1c(C)cccc1C)CC2 [6,7-dimethoxy-2-(2',6'-dimethylphenylmethylene)-1-tetralone] | > 50 µM |
| COc1cc2c(cc1OC)C(=O)C(=Cc1cc(OC)c(OC)c(OC)c1)CC2 [6,7-dimethoxy-2-(3',4',5'-trimethoxyphenylmethylene)-1-tetralone] | > 50 µM |
| COc1cc2c(cc1OC)C(=O)C(=Cc1cc(C)cc(C)c1)CC2 [6,7-dimethoxy-2-(3',5'-dimethylphenylmethylene)-1-tetralone] | 4 µM |
| COc1cc2c(cc1OC)C(=O)C(=Cc1ccc(O)c(C(=O)O)c1)CC2 [6,7-dimethoxy-2-(3'-hydrocarboxy-4'-hydroxyphenylmethylene)-1-tetralone] | > 50 µM |
| COc1cc2c(cc1OC)C(=O)C(=Cc1ccc(N)cc1)CC2 [6,7-dimethoxy-2-(4'-aminophenylmethylene)-1-tetralone] | > 50 µM |
| COc1ccc2c(c1)C(=O)C(=Cc1cc(C)c(O)c(C)c1)C2 [6-methoxy-2-(3',5'-dimethyl-4'-hydroxyphenylmethylene)-1-indanone] | > 50 µM |
| COc1cccc2c1C(=O)C(=Cc1cc(C)c(O)c(C)c1)C2 [7-methoxy-2-(3',5'-dimethyl-4'-hydroxyphenylmethylene)-1-indanone] | 51 µM |

same assay, conditions: Homo sapiens, read-out: TC50

| Compound | CC50 |
| --- | --- |
| COc1cc2c(cc1OC)C(=O)/C(=C/c1cc(C)c(O)c(C)c1)C2 [5,6-dimethoxy-2-(3',5'-dimethyl-4'-hydroxyphenylmethylene)-1-indanone] | 0.017 µM |

same assay, conditions: average TC50 over various proliferating cell lines; read-out: TC50 (the source's name)

| Compound | CC50 |
| --- | --- |
| 5,6-dimethoxy-2-(3',5'-dimethyl-4'-phosphonoacetylphenylmethylene)-1-indanone | 0.007 µM |
| 6,7-dimethoxy-2-(4'-(pyridine-N-oxide)phenylmethylene)-1-tetralone | > 50 µM |
| COc1cc2c(cc1OC)C(=O)C(=Cc1cc(F)cc(F)c1)C2 [5,6-dimethoxy-2-(3',5'-difluorophenylmethylene)-1-indanone (] | 26 µM |

system: proliferating cells; experiment: Ability of further compounds to kill proliferating cells (average); assay type: cell-based; conditions: average TC50, proliferating cells; read-out: TC50 (the source's name)
Procedure: as §1
(C) Proceeding as described above, further compounds were tested for their ability to kill proliferating cells.

| Compound | CC50 |
| --- | --- |
| O=C1C(=Cc2cc(Cl)cc(Cl)c2)Cc2ccccc21 [2-(3',5'-dichlorophenylmethylene)-1-indanone] | 30 µM |
| COc1cc2c(cc1OC)C(=O)C(=Cc1cc(C)ccc1C)C2 [5,6-dimethoxy-2-(2',5'-dimethylphenylmethylene)-1-indanone] | 30.5 µM |
| COc1cc2c(cc1OC)C(=O)C(=Cc1cc(I)cc(I)c1O)C2 [5,6-dimethoxy-2-(2'-hydroxy-3',5'-diiodophenylmethylene)-1-indanone] | 12.5 µM |
| COc1cc2c(cc1OC)C(=O)C(=Cc1cc([N+](=O)[O-])ccc1O)C2 [5,6-dimethoxy-2-(2'-hydroxy-5'-nitrophenylmethylene)-1-indanone] | 14.5 µM |
| COc1cc2c(cc1OC)C(=O)C(=Cc1cc(F)cc(F)c1)C2 [5,6-dimethoxy-2-(3',5'-difluorophenylmethylene)-1-indanone] | 19 µM |
| COc1cc2c(cc1OC)C(=O)C(=Cc1cc(OC)c(O)c(OC)c1)C2 [5,6-dimethoxy-2-(3',5'-dimethoxy-4'-hydroxyphenylmethylene)-1-indanone] | > 50 µM |
| COc1cc2c(cc1OC)C(=O)C(=Cc1cc(C)c(OC(C)=O)c(C)c1)C2 [5,6-dimethoxy-2-(3',5'-dimethyl-4'-acetoxyphenylmethylene)-1-indanone] | 0.4 µM |
| COc1cc2c(cc1OC)C(=O)C(=Cc1cc(C)c([N+](=O)[O-])c(C)c1)C2 [5,6-dimethoxy-2-(3',5'-dimethyl-4'-nitrophenylmethylene)-1-indanone] | > 50 µM |
| COc1cc2c(cc1OC)C(=O)C(=Cc1cc(C)c(OC(=O)CP(=O)(O)O)c(C)c1)C2 [5,6-dimethoxy-2-(3',5'-dimethyl-4'-phosphonoacetoxyphenylmethylene)-1-indanone] | 11.5 µM |
| COc1cc2c(cc1OC)C(=O)C(=Cc1cc(C)c(OC(=O)CCC(=O)O)c(C)c1)C2 [5,6-dimethoxy-2-(3',5'-dimethyl-4'-succinophenylmethylene)-1-indanone] | 0.07 µM |
| COc1cc2c(cc1OC)C(=O)C(=Cc1cc(C(F)(F)F)cc(C(F)(F)F)c1)C2 [5,6-dimethoxy-2-(3',5'-ditrifluoromethylphenylmethylene)-1-indanone] | > 50 µM |
| COc1cc2c(cc1OC)C(=O)C(=Cc1cccc(Cl)c1)C2 [5,6-dimethoxy-2-(3'-chlorophenylmethylene)-1-indanone] | 2.5 µM |
| COc1cc2c(c(NC(=O)C=O)c1OC)C(=O)C(=Cc1cc(C)c(O)c(C)c1)C2 [5,6-dimethoxy-7-(NHCOCOH)-2-(3',5'-dimethyl-4'-hydroxyphenylmethylene)-1-indanone] | 0.0015 µM |
| COc1cc2c(c(N)c1OC)C(=O)C(=Cc1cc(C)c(O)c(C)c1)C2 [5,6-dimethoxy-7-amino-2-(3',5'-dimethyl-4'-hydroxyphenylmethylene)-1-indanone] | 0.0008 µM |
| COC(=O)C(=O)Nc1c(OC)c(OC)cc2c1C(=O)C(=Cc1cc(C)c(O)c(C)c1)C2 [5,6-dimethoxy-7-methoxalylamino-2-(3',5'-dimethyl-4'-hydroxyphenylmethylene)-1-indanone] | 0.2 µM |
| COc1cc2c(c([N+](=O)[O-])c1OC)C(=O)/C(=C/c1cc(C)c(O)c(C)c1)C2 [5,6-dimethoxy-7-nitro-2-(3',5'-dimethyl-4'-hydroxyphenylmethylene)-1-indanone] | > 50 µM |
| COc1cc(C=C2Cc3cc(C)c(C)cc3C2=O)cc(OC)c1 [5,6-dimethyl-2-(3',5'-dimethoxyphenylmethylene)-1-indanone] | > 50 µM |
| COc1cc(C=C2Cc3cc(OC)ccc3C2=O)cc(OC)c1 [5-methoxy-2-(3',5'-dimethoxyphenylmethylene)-1-indanone] | > 50 µM |
| COc1ccc(C=C2CCc3cc(OC)c(OC)cc3C2=O)c(OC)c1 [6,7-dimethoxy-2-(2',4'-dimethoxyphenylmethylene)-1-tetralone] | > 50 µM |
| COc1cc2c(cc1OC)C(=O)C(=Cc1c(OC)cccc1OC)CC2 [6,7-dimethoxy-2-(2',6'-dimethoxyphenylmethylene)-1-tetralone] | > 50 µM |
| COc1ccccc1C=C1CCc2cc(OC)c(OC)cc2C1=O [6,7-dimethoxy-2-(2'-methoxyphenylmethylene)-1-tetralone] | > 50 µM |
| COc1cc2c(cc1OC)C(=O)C(=Cc1cc(Cl)cc(Cl)c1)CC2 [6,7-dimethoxy-2-(3',5'-dichlorophenylmethylene)-1-tetralone] | 7 µM |
| COc1cc2c(cc1OC)C(=O)C(=Cc1cc(OC)c(O)c(OC)c1)CC2 [6,7-dimethoxy-2-(3',5'-dimethoxy-4'-hydroxyphenylmethylene)-1-tetralone] | 6 µM |
| COc1cc2c(cc1OC)C(=O)C(=Cc1cccc(Cl)c1)CC2 [6,7-dimethoxy-2-(3'-chlorophenylmethylene)-1-tetralone] | 9 µM |
| COc1cccc(C=C2CCc3cc(OC)c(OC)cc3C2=O)c1 [6,7-dimethoxy-2-(3'-methoxyphenylmethylene)-1-tetralone] | 5 µM |
| COc1cc2c(cc1OC)C(=O)C(=Cc1cccc([N+](=O)[O-])c1)CC2 [6,7-dimethoxy-2-(3'-nitrophenylmethylene)-1-tetralone] | 9 µM |

same assay, conditions: read-out: TC50

| Compound | CC50 |
| --- | --- |
| COc1cc2c(cc1OC)C(=O)/C(=C/c1cc(C)c(O)c(C)c1)C2 [5,6-dimethoxy-2-(3',5'-dimethyl-4'-hydroxyphenylmethylene)-1-indanone] | 0.0065 µM |

Source: patent US6162810A, “Inadone and tetralone compounds for inhibiting cell proliferation” (The Regents of the University of California, priority 1998, dated 2000)
